Experiment: Tolerability of maintained 2H2O body water enrichment
Assay type: in vivo
Conditions: 1-10% of total body water labeled, maintained for weeks or months in humans (>100 people) and experimental animals; rapid changes in enrichment prevented
From the text: Relatively high body water enrichments of ^2H2O (e.g., 1-10% of the total body water is labeled) may be achieved relatively inexpensively using the techniques of the invention. […] This finding in a large number of human subjects (>100 people) is contrary to previous concerns about vestibular toxicities at high doses of ^2H2O. The Applicant has discovered that as long as rapid changes in body water enrichment are prevented (e.g., by initial administration in small, divided doses), high body water enrichments of ^2H2O can be maintained with no toxicities. For example, the low expense of commercially available ^2H2O allows long-term maintenance of enrichments in the 1-5% range at relatively low expense (e.g., calculations reveal a lower cost for 2 months labeling at 2% ^2H2O enrichment, and thus 7-8% enrichment in the alanine precursor pool, than for 12 hours labeling of ^2H-leucine at 10% free leucine enrichment, and thus 7-8% enrichment in leucine precursor pool for that period).

With `[2H]O[2H]` [^2H2O, deuterated water] the “toxicity at maintained body water enrichment” value was “without any evidence of toxicity”.

Source: patent US20050238577A1, “Isolation of epithelial cells or their biochemical contents from excreta after in vivo isotopic labeling” (The Regents of the University of California, priority 2004, published 2005)
